# Assay results taken from US8138146B2, “Antiviral peptide and antiviral agent” (priority 2006, dated 2012).
# Read-outs that look alike come from different tables or passages of the source. No end group written: not given here.
# Key:
# Assay type in all cases: cell-based
# [1] = tested on: HVT (turkey herpes virus); assay: HVT multiplication suppression, plaque assay in CEF cells; conditions: for Ratio (relative ratio of virus titer, no peptide = 1) / Titer: HVT FC-126 strain in CEF cells; for Titer: six days; for viral multiplication suppression effect (antiviral activity), in words: HVT in CEF cells, peptide 10, 50, 100 μM, number and size of plaques
# [2] = tested on: MDV (Marek's disease virus); conditions: for antiviral activity (viral multiplication suppression effect) against MDV, in words: MDV in CEF cells, peptide 50 and 100 μM; for Ratio / Titer: MDV type 1 Md5 strain in CEF cells; for Titer: four days
# [3] = tested on: MDCK (Madrin Darby Canine Kidney) cell; assay: Cytotoxicity control, MDCK cells without virus (Example 4); conditions: 48 hours
# Procedure: The culture supernatant was removed from wells where a full sheet (monolayer) composed of MDCK cells was formed by the above culture. 2 mL of PBS was added to the wells and the wells were washed. This washing was repeated twice. Next, a viral solution prepared with MEM medium (no FBS added, containing 0.02% dextran and 1 μg/mL trypsin) so as to have 10^4 PFU/mL was used for inoculation at 0.1 mL per well, and culture was incubated in the presence of 5% CO2, at 34° C. for one hour, to adsorb the virus to the cells. After the incubation, was added 2 mL of MEM medium (no FBS added, containing 0.02% dextran and 1 μg/mL trypsin) containing the test peptide at a given concentration so as to have 50 μM and 10 μM final concentrations of peptide in each well after addition. Note that a well was prepared as a control plot (control), in which 2 mL of the above-mentioned MEM medium not containing peptide was added. In addition, as the control group for evaluating the cytotoxicity of the test peptide, 2 mL of MEM medium (no FBS added, containing 0.02% dextran and 1 μg/mL trypsin) containing the test peptide at a given concentration was added each to wells (with full sheet formed) containing MDCK cells to which the above-mentioned viral solution was not added (that is to say, not containing virus). Then incubation was carried out in the presence of 5% CO2 at 34° C. for 48 hours.
Substance,"Ratio (relative ratio of virus titer, no peptide = 1) ([1]; peptide 10 μM)",Titer ([1]; peptide 10 μM),"Ratio (relative ratio of virus titer, no peptide = 1) ([1]; peptide 50 μM)",Titer ([1]; peptide 50 μM),"Ratio (relative ratio of virus titer, no peptide = 1) ([1]; peptide 100 μM)",Titer ([1]; peptide 100 μM),"viral multiplication suppression effect (antiviral activity), in words [1]",further results
"LPPLERLTLD RQARRNRRRRWR-CONH2 (LPPLERLTLDRQARRNRRRRWR-NH2) [Sample 2, NES … on the N-terminal side, NLS … on the C-terminal side; 22 residues]",0.91,8.0 × 10^4 PFU/mL,0.59,5.2 × 10^4 PFU/mL,0.57,5.0 × 10^4 PFU/mL,,
"LPPLERLTLD-CONH2 (LPPLERLTLD-NH2) [Comparative Sample 2, reference compound]",,,,,,,no viral multiplication suppression effect,
"RKKKRKV LALKAGLDI-CONH2 (RKKKRKVLALKAGLDI-NH2) [Sample 4, modified SV40 NLS plus modified mouse PKI NES with one leucine deleted; 16 residues]",0.95,1.8 × 10^4 PFU/mL,0.47,9.0 × 10^3 PFU/mL,0.24,4.5 × 10^3 PFU/mL,,"antiviral activity (viral multiplication suppression effect) against MDV, in words [2]: satisfactory antiviral activity; Ratio ([2]; peptide 50 μM): 0.63; Titer ([2]; peptide 50 μM): 4.27 × 10^6 TCID50; Ratio ([2]; peptide 100 μM): 0.47; Titer ([2]; peptide 100 μM): 3.16 × 10^6 TCID50"
"RKKKRKV-CONH2 (RKKKRKV-NH2) [Comparative Sample 4, reference compound]",,,,,,,no viral multiplication suppression effect,
"RQARRNRRRRWR LPPLERLTLD-CONH2 (RQARRNRRRRWRLPPLERLTLD-NH2) [Sample 1, HIV REV-derived NLS on the N-terminal side, HIV-derived NES on the C-terminal side; 22 residues]",0.75,7.8 × 10^4 PFU/mL,0.25,2.6 × 10^4 PFU/mL,0.13,1.4 × 10^4 PFU/mL,,"antiviral activity (viral multiplication suppression effect) against MDV, in words [2]: satisfactory antiviral activity; Ratio ([2]; peptide 50 μM): 0.36; Titer ([2]; peptide 50 μM): 2.40 × 10^6 TCID50; Ratio ([2]; peptide 100 μM): 0.1; Titer ([2]; peptide 100 μM): 6.76 × 10^5 TCID50"
"RQARRNRRRRWR-CONH2 (RQARRNRRRRWR-NH2) [Comparative Sample 1, reference compound]",,,,,,,no viral multiplication suppression effect,
"YGRKKRRQRRR-CONH2 (YGRKKRRQRRR-NH2) [Comparative Sample 3, reference compound]",,,,,,,no viral multiplication suppression effect,
"YGRKKRRQRRRLPPLERLTLD-NH2 [Sample 3, YGRKKRRQRRR LPPLERLTLD-CONH2]",,,,,,,,cytotoxicity [3]: no cytotoxicity was observed
